Source: patent US12065442B2, “Tropomyosin receptor kinase (TRK) degradation compounds and methods of use” (Cullgen (Shanghai), Inc., priority 2018, dated 2024)
pIC50: −log10 of the molar value.

The compounds below were run on KM12 cells (assay: Cell viability assay (CellTiter-Glo) in KM12 cells). Conditions: Homo sapiens, 72 h; Table 3; KM12 cell viability, CellTiter-Glo, 3 days; read-out: IC50.
Type: cell-based

Compound | pIC50
O=C1CCC(N2C(=O)c3ccc(NCC4CCN(c5cccc(-c6cnc7ccc(N8CCC[C@@H]8c8cccc(F)c8)nn67)n5)CC4)cc3C2=O)C(=O)N1 (stereo partly drawn) [TR-178, 2-(2,6-Dioxopiperidin-3-yl)-5-(((1-(6-(6-((R)-2-(3-fluorophenyl)pyrrolidin-1-yl)imidazo[1,2-b]pyridazin-3-yl)pyridin-2-yl)piperidin-4-yl)methyl)amino)isoindoline-1,3-dione] | 7.17
O=C1CCC(N2C(=O)c3ccc(NCC4CN(c5cccc(-c6cnc7ccc(N8CCC[C@@H]8c8cccc(F)c8)nn67)n5)C4)cc3C2=O)C(=O)N1 (stereo partly drawn) [TR-179, 2-(2,6-Dioxopiperidin-3-yl)-5-(((1-(6-(6-((R)-2-(3-fluorophenyl)pyrrolidin-1-yl)imidazo[1,2-b]pyridazin-3-yl)pyridin-2-yl)azetidin-3-yl)methyl)amino)isoindoline-1,3-dione] | 7.63
O=C1CCC(N2C(=O)c3ccc(NCCC4CCN(c5cccc(-c6cnc7ccc(N8CCC[C@@H]8c8cccc(F)c8)nn67)n5)CC4)cc3C2=O)C(=O)N1 (stereo partly drawn) [TR-180, 2-(2,6-Dioxopiperidin-3-yl)-5-((2-(1-(6-(6-((R)-2-(3-fluorophenyl)pyrrolidin-1-yl)imidazo[1,2-b]pyridazin-3-yl)pyridin-2-yl)piperidin-4-yl)ethyl)amino)isoindoline-1,3-dione] | 7.47
O=C1CCC(N2C(=O)c3ccc(N4CCC(N5CCN(c6cccc(-c7cnc8ccc(N9CCC[C@@H]9c9cccc(F)c9)nn78)n6)CC5)CC4)cc3C2=O)C(=O)N1 (stereo partly drawn) [TR-182, 2-(2,6-Dioxopiperidin-3-yl)-5-(4-(4-(6-(6-((R)-2-(3-fluorophenyl)pyrrolidin-1-yl)imidazo[1,2-b]pyridazin-3-yl)pyridin-2-yl)piperazin-1-yl)piperidin-1-yl)isoindoline-1,3-dione] | 7.80
O=C1CCC(N2C(=O)c3ccc(C#CCN4CCN(c5cccc(-c6cnc7ccc(N8CCC[C@@H]8c8cccc(F)c8)nn67)n5)CC4)cc3C2=O)C(=O)N1 (stereo partly drawn) [TR-183, 2-(2,6-Dioxopiperidin-3-yl)-5-(3-(4-(6-(6-((R)-2-(3-fluorophenyl)pyrrolidin-1-yl)imidazo[1,2-b]pyridazin-3-yl)pyridin-2-yl)piperazin-1-yl)prop-1-yn-1-yl)isoindoline-1,3-dione] | 6.89
O=C1CCC(N2C(=O)c3ccc(N4CC(N5CCN(c6cccc(-c7cnc8ccc(N9CCC[C@@H]9c9cccc(F)c9)nn78)n6)CC5)C4)cc3C2=O)C(=O)N1 (stereo partly drawn) [TR-184, 2-(2,6-dioxopiperidin-3-yl)-5-(3-(4-(6-(6-((R)-2-(3-fluorophenyl)pyrrolidin-1-yl)imidazo[1,2-b]pyridazin-3-yl)pyridin-2-yl)piperazin-1-yl)azetidin-1-yl)isoindoline-1,3-dione] | 8.03
O=C1CCC(N2Cc3ccc(CCCN4CCN(c5cccc(-c6cnc7ccc(N8CCC[C@@H]8c8cccc(F)c8)nn67)n5)CC4)cc3C2=O)C(=O)N1 (stereo partly drawn) [TR-185, 3-(6-(3-(4-(6-(6-((R)-2-(3-fluorophenyl)pyrrolidin-1-yl)imidazo[1,2-b]pyridazin-3-yl)pyridin-2-yl)piperazin-1-yl)propyl)-1-oxoisoindolin-2-yl)piperidine-2,6-dione] | 7.77
O=C1CCC(N2Cc3cc(CCCN4CCN(c5cccc(-c6cnc7ccc(N8CCC[C@@H]8c8cccc(F)c8)nn67)n5)CC4)ccc3C2=O)C(=O)N1 (stereo partly drawn) [TR-186, 3-(5-(3-(4-(6-(6-((R)-2-(3-fluorophenyl)pyrrolidin-1-yl)imidazo[1,2-b]pyridazin-3-yl)pyridin-2-yl)piperazin-1-yl)propyl)-1-oxoisoindolin-2-yl)piperidine-2,6-dione] | 8.24
O=C1CCC(N2Cc3ccc(C#CCN4CCN(c5cccc(-c6cnc7ccc(N8CCC[C@@H]8c8cccc(F)c8)nn67)n5)CC4)cc3C2=O)C(=O)N1 (stereo partly drawn) [TR-187, 3-(6-(3-(4-(6-(6-((R)-2-(3-fluorophenyl)pyrrolidin-1-yl)imidazo[1,2-b]pyridazin-3-yl)pyridin-2-yl)piperazin-1-yl)prop-1-yn-1-yl)-1-oxoisoindolin-2-yl)piperidine-2,6-dione] | 7.73
